Legend:
[1] = in vivo; cited from earlier work
GSC6-27 [2] = assay: Orthotopic GSC xenograft model; format: in vivo, mice
Method: (§1) The in vivo effects of M2698 and pimasertib, alone and in combination, were assessed in the GSC models after orthotopic implantation into mice. Treatment duration and time of euthanasia post-implantation was 5-10 weeks. Endpoints were expression of PD markers pS6 and pERK, proliferation marker Ki67, apoptosis as measured by TUNEL, tumor volume and survival.

GSC231 [3] = assay: Orthotopic GSC xenograft model; format: in vivo, mice
Method: as §1

GSC20 [4] = assay: Orthotopic GSC xenograft model; format: in vivo, mice
Method: as §1

GSC17 [5] = assay: Orthotopic GSC xenograft model; format: in vivo, mice
Method: as §1

GSC11 [6] = assay: Orthotopic GSC xenograft model; format: in vivo, mice
Method: as §1

GSC272 = assay: Orthotopic GSC xenograft model; format: in vivo, mice
Method: as §1

GSC7-2 [7] = assay: Orthotopic GSC xenograft model; format: in vivo, mice
Method: as §1

SCCHN PDX = assay: 38 PDX models of SCCHN, 1+1 screen; format: in vivo, mouse; details: 38 models, M2698 25 mg/kg PO QDx28, Cetuximab 30 mg/kg IP 2wklyx4
Method: 46 SCCHN PDX models were run in a 1+1 scheme (one mouse per treatment group). […] With the adjustment to the cancellation, 38 models were completed. […] After implantation, treatments began when average tumor volume reached ˜200 mm^3 for each model. Tumor volumes were measured for each model until the control tumor reached ˜1200 mm^3 at which time all animals for that model were euthanized.

[8] = system: Her2+/HR− Breast Cancer PDX; assay: PDX models of Her2+/HR- breast cancer; format: in vivo
p70S6K = p70S6K (Homo sapiens, UniProt P23443); details: variety of cell-based assays; cited from earlier work
cancer cell lines = details: broad panel of cancer cell lines; cited from earlier work
[9] = system: human cholangiocarcinoma cancer PDX; assay: PDX models of cholangiocarcinoma; format: in vivo, mice; details: 20 mg/kg each agent QD PO
Excerpt: The objective of this experiment was to evaluate the antitumor activity of M2698 alone and in combination with Pimasertib in a panel of 13 Patient-Derived Xenograft models representing human cholangiocarcinoma cancer derived from Chinese patients in immune-deficient mice.
Vehicle: 0.5% Methocel/0.25% Tween20 in Milli-Q Water. Tumors from three untreated mice were collected as satellite samples when reached a tumor volume between 300-500 mm3.

Akt = details: variety of cell-based assays; cited from earlier work
Colorectal Cancer PDX = assay: 75 PDX models of colorectal cancer; format: in vivo; details: CRC PDX; M2698 25 mg/kg po qd, Pimasertib 20 mg/kg po qd, Cetuximab 20 mg/kg ip q2w
Excerpt: Of the 75 models, 25 were wild type, 25 KRas mutant, and 25 BRaf mutant.

[10] = system: Non-Small Lung Cancer (NSCLC) Brain Metastases PDX; assay: PDX models of NSCLC brain metastases; format: in vivo
GSC6-27 [11] = assay: GSC lines: sensitivity in vitro (IC50); format: cell-based; details: GSC6-27 line in vitro
Method: (§2) FIG. 1: In vitro analyses in GSC lines. (A) Western blot analysis of protein expression; (B) IC50 of M2698; (C) IC50 of pimasertib; and (D) apoptotic GSC11, GSC7-2, and GSC17 cells after treatment with M2698, pimasertib, or M2698+pimasertib combination. Single agents were tested at their IC50; half the IC50 of each compound was used for the combination.
(§3) All GSC lines expressed Akt. Relatively high pAkt expression in GSC17, GSC7-2, GSC231, GSC11, GSC20, GSC6-27, and GSC8-11 lines compared with GSC272 and GSC267 (FIG. 1A).

GSC231 [12] = assay: GSC lines: sensitivity in vitro (IC50); format: cell-based; details: GSC231 line in vitro
Method: as §2, §3

GSC20 [13] = assay: GSC lines: sensitivity in vitro (IC50); format: cell-based; details: GSC20 line
Method: as §2, §3

GSC8-11 = assay: GSC lines: sensitivity in vitro (IC50); format: cell-based; details: GSC8-11 line in vitro
Method: as §2, §3

GSC17 [14] = assay: GSC lines: sensitivity in vitro (IC50); format: cell-based; details: GSC17 line in vitro
Method: as §2, §3

GSC11 [15] = assay: GSC lines: sensitivity in vitro (IC50); format: cell-based; details: GSC11 line in vitro
Method: as §2, §3

GSC7-2 [16] = assay: GSC lines: sensitivity in vitro (IC50); format: cell-based; details: GSC7-2 line in vitro
Method: as §2, §3

GSC17 [17] = assay: Induction of apoptosis in GSC lines in vitro; format: cell-based
Method: (§4) FIG. 1: In vitro analyses in GSC lines. (A) Western blot analysis of protein expression; (B) IC50 of M2698; (C) IC50 of pimasertib; and (D) apoptotic GSC11, GSC7-2, and GSC17 cells after treatment with M2698, pimasertib, or M2698+pimasertib combination. […]
(§5) Induction of apoptosis by M2698, pimasertib, and the combination was measured in three of five GSC lines that were sensitive to M2698 in vitro.

GSC11 [18] = assay: Induction of apoptosis in GSC lines in vitro; format: cell-based
Method: as §4, §5

GSC7-2 [19] = assay: Induction of apoptosis in GSC lines in vitro; format: cell-based
Method: as §4, §5

human GBM = details: orthotopically implanted models of human GBM; cited from earlier work

Sequence of p70S6K (P23443 whole entry): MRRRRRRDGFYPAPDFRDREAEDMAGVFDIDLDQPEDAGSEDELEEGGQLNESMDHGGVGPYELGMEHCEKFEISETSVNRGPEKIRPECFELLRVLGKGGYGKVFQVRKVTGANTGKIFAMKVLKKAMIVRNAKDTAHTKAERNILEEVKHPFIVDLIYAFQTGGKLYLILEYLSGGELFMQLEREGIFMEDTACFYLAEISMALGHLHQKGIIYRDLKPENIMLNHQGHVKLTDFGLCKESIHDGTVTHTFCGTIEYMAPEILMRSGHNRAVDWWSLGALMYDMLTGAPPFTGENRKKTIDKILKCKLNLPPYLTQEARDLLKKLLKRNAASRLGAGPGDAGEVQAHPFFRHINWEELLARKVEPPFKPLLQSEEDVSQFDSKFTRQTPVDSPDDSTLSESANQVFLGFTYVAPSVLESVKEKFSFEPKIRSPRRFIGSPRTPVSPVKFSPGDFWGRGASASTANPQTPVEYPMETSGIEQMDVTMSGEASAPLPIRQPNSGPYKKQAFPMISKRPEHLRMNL

**Q.** With `NC(=O)c1cccc2c(N[C@H](CN3CCC3)c3ccc(Cl)c(C(F)(F)F)c3)ncnc12` [M2698, 4-[(S)-2-Azetidin-1-yl-1-(4-chloro-3-trifluoromethyl-phenyl)-ethylamino]-quinazoline-8-carboxylic acid amide] as the compound, how does the blood-brain barrier penetration [1] read?
**A.** Its blood-brain barrier penetration is “crosses the blood-brain barrier”.

**Q.** And the “pERK expression in orthotopic tumor” value (GSC6-27 [2]; GSC6-27, PD marker)?
**A.** The value was “reduced pERK”.

**Q.** And the “pS6 expression in orthotopic tumor” value (GSC6-27 [2]; GSC6-27, PD marker)?
**A.** The value was “significantly reduced pS6”.

**Q.** What about the “tumor volume / tumor growth” value (GSC6-27 [2]; GSC6-27 orthotopic, vs vehicle) of the same compound?
**A.** Its value is “significantly inhibited tumor growth”.

**Q.** What about the “pERK expression in orthotopic tumor” value (GSC231 [3]; GSC231, PD marker) of the same compound?
**A.** Its value is “reduced pERK”.

**Q.** What about the “pS6 expression in orthotopic tumor” value (GSC231 [3]; GSC231, PD marker) of the same compound?
**A.** The value was “significantly reduced pS6”.

**Q.** And the median survival (GSC231 [3]; GSC231 orthotopic, vs vehicle)?
**A.** Its median survival is “prolonged survival”.

**Q.** What about the “tumor volume / tumor growth” value (GSC231 [3]; GSC231 orthotopic, vs vehicle) of the same compound?
**A.** Its value is “significantly inhibited tumor growth”.

**Q.** What about the “pS6 expression in orthotopic tumor” value (GSC20 [4]; GSC20, PD marker) of the same compound?
**A.** Its value is “lack of significant response”.

**Q.** And the “tumor volume / tumor growth” value (GSC20 [4]; GSC20 orthotopic, vs vehicle)?
**A.** Its value is “had not responded”.

**Q.** And the “pERK expression in orthotopic tumor” value (GSC17 [5]; GSC17, PD marker)?
**A.** The value was “reduced pERK”.

**Q.** And the “pS6 expression in orthotopic tumor” value (GSC17 [5]; GSC17, PD marker)?
**A.** Its value is “significantly reduced pS6”.

**Q.** What about the “tumor volume / tumor growth” value (GSC17 [5]; GSC17 orthotopic, vs vehicle) of the same compound?
**A.** Its value is “significantly inhibited tumor growth”.

**Q.** What about the “proliferation (Ki67 by immunohistochemistry)” value (GSC17 [5]; GSC17 tumor sections, compared to vehicle) of the same compound?
**A.** Its value is “significantly reduced proliferation”.

**Q.** And the “pERK expression in orthotopic tumor” value (GSC11 [6]; GSC11, PD marker)?
**A.** Its value is “reduced pERK”.

**Q.** And the “pS6 expression in orthotopic tumor” value (GSC11 [6]; GSC11, PD marker)?
**A.** Its value is “significantly reduced pS6”.

**Q.** What about the “tumor volume / tumor growth” value (GSC11 [6]; GSC11 orthotopic, vs vehicle) of the same compound?
**A.** The value was “had a trend to do so”.

**Q.** And the “pERK expression in orthotopic tumor” value (GSC272; GSC272, PD marker)?
**A.** The value was “reduced pERK”.

**Q.** And the “pS6 expression in orthotopic tumor” value (GSC272; GSC272, PD marker)?
**A.** The value was “significantly reduced pS6”.

**Q.** And the median survival (GSC272; GSC272 orthotopic, vs vehicle)?
**A.** Its median survival is “prolonged survival”.

**Q.** And the “tumor volume / tumor growth” value (GSC272; GSC272 orthotopic, vs vehicle)?
**A.** The value was “significantly inhibited tumor growth”.

**Q.** What about the “pERK expression in orthotopic tumor” value (GSC7-2 [7]; GSC7-2, PD marker) of the same compound?
**A.** The value was “reduced pERK”.

**Q.** And the “pS6 expression in orthotopic tumor” value (GSC7-2 [7]; GSC7-2, PD marker)?
**A.** Its value is “significantly reduced pS6”.

**Q.** And the “tumor volume / tumor growth” value (GSC7-2 [7]; GSC7-2 orthotopic, vs vehicle)?
**A.** Its value is “significantly inhibited tumor growth”.

**Q.** And the “proliferation (Ki67 by immunohistochemistry)” value (GSC7-2 [7]; GSC7-2 tumor sections, compared to vehicle)?
**A.** Its value is “significantly reduced proliferation”.

**Q.** What about the “number of apoptotic cells/field” value (GSC7-2 [7]; GSC7-2 xenografts, after 10 weeks) of the same compound?
**A.** The value was 52.17±25.20 cells/field.

**Q.** What about the “apoptosis in xenografts vs control” value (GSC7-2 [7]; GSC7-2 xenografts, at 7.5 weeks) of the same compound?
**A.** The value was “Neither M2698, pimasertib, nor combination treatment significantly affected apoptosis”.

**Q.** And the “Models with an Overall Response (“RECIST”)” value (SCCHN PDX)?
**A.** Its value is 7/38.

**Q.** What about the “Partial response (number of models)” value (SCCHN PDX) of the same compound?
**A.** Its value is 0.

**Q.** What about the “Tumor Progression (number of models)” value (SCCHN PDX) of the same compound?
**A.** The value was 31.

**Q.** And the “Tumor Stasis (number of models)” value (SCCHN PDX)?
**A.** The value was 7.

**Q.** And the “tumor control rate (TCR)” value (SCCHN PDX)?
**A.** Its value is 18%.

**Q.** And the “tumor volume over the duration of the experiment” value [8]?
**A.** Its value is “stasis of the tumor volume”.

**Q.** And the “inhibition of p70S6K” value (p70S6K)?
**A.** Its value is “highly potent”.

**Q.** And the “anti-tumor activity” value (cancer cell lines)?
**A.** The value was “potent anti-tumor activity”.

**Q.** And the “tumor stasis, number of tumor samples” value [9]?
**A.** The value was 2/12.

**Q.** And the “tumor stasis, share of tumor samples” value [9]?
**A.** The value was 17%.

**Q.** And the “inhibition of Akt” value (Akt)?
**A.** The value was “highly potent”.

**Q.** And the “tumor control rate (TCR)” value (Colorectal Cancer PDX)?
**A.** Its value is 15%.

**Q.** What about the “tumor control rate (TCR), models controlled/models” value (Colorectal Cancer PDX) of the same compound?
**A.** Its value is 11/74.

**Q.** And the “tumor control rate (TCR)” value [10]?
**A.** Its value is 5%.

**Q.** And the IC50 (GSC6-27 [11])?
**A.** The IC50 was under 2000 nM.

**Q.** And the IC50 (GSC231 [12])?
**A.** The IC50 was under 2000 nM.

**Q.** What about the “sensitivity in vitro” value (GSC20 [13]) of the same compound?
**A.** The value was “insensitivity”.

**Q.** And the IC50 (GSC8-11)?
**A.** Its IC50 is under 2000 nM.

**Q.** What about the IC50 (GSC17 [14]) of the same compound?
**A.** The IC50 was under 2000 nM.

**Q.** And the IC50 (GSC11 [15])?
**A.** The IC50 was under 2000 nM.

**Q.** What about the IC50 (GSC7-2 [16]) of the same compound?
**A.** The IC50 was under 2000 nM.

**Q.** What about the apoptotic percentage (GSC17 [17]; GSC17, monotherapy at 2×IC50) of the same compound?
**A.** The apoptotic percentage was 12%.

**Q.** What about the apoptotic percentage (GSC17 [17]; GSC17, monotherapy at the IC50) of the same compound?
**A.** The apoptotic percentage was 11%.

**Q.** And the apoptotic percentage (GSC11 [18]; GSC11, monotherapy at 2×IC50)?
**A.** The apoptotic percentage was 62%.

**Q.** What about the apoptotic percentage (GSC11 [18]; GSC11, monotherapy at the IC50) of the same compound?
**A.** The apoptotic percentage was 56%.

**Q.** And the apoptotic percentage (GSC7-2 [19]; GSC7-2, monotherapy at 2×IC50)?
**A.** Its apoptotic percentage is 17%.

**Q.** What about the apoptotic percentage (GSC7-2 [19]; GSC7-2, monotherapy at the IC50) of the same compound?
**A.** Its apoptotic percentage is 13%.

**Q.** What about the survival (human GBM) of the same compound?
**A.** The survival was “prolongs survival”.

**Q.** What about the tumor growth (human GBM) of the same compound?
**A.** The tumor growth was “reduces tumor growth”.
